Results on 9 molecules are retold here after patent publication US10618901B2 (GlaxoSmithKline Intellectual Property Development Limited, priority 2014, dated 2020).

Each structure is given as a SMILES string.

This test concerns the target T1, 6HIS-Tev-LRRK2 (1326-2527) (Homo sapiens, UniProt Q5S007).
T1 construct: A LRRK2 cDNA encoding residues 1326-2527 was received from Dundee University; made in house; host or cells: Spodoptera frugiperda Sf9 (baculovirus, pFB-HTb)
T1 sequence (Q5S007 1326-2527): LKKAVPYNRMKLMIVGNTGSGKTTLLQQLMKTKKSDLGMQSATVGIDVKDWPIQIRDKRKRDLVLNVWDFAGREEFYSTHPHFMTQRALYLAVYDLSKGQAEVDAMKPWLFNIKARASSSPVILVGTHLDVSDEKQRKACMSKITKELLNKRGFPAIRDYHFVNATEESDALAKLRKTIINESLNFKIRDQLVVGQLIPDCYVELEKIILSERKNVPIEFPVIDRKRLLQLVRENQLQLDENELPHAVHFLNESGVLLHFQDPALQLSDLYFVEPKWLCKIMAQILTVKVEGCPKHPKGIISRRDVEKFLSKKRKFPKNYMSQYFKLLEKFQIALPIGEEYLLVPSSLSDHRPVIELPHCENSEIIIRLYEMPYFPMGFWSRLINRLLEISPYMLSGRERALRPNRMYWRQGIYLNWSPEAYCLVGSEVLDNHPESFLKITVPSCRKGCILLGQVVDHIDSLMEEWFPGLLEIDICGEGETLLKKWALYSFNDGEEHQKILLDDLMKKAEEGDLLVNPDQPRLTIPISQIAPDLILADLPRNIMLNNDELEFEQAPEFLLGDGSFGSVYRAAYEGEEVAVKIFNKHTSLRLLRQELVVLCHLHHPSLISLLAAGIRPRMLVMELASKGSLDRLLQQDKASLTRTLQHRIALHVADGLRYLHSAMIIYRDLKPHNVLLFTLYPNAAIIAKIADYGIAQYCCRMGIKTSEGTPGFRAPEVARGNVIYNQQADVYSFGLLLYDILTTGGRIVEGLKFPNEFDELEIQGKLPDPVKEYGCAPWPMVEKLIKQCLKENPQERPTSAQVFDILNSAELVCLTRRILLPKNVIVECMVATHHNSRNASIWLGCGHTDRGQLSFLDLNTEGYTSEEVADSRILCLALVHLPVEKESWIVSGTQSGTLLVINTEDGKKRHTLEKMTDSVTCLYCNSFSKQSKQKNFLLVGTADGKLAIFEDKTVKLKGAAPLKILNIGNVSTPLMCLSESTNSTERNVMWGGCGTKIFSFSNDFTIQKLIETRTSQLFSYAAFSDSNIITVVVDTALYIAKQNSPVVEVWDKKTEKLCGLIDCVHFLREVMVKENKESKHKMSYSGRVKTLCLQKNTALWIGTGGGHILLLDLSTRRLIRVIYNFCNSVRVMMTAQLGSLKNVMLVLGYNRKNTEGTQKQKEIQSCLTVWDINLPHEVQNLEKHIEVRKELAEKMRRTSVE
Nature of the test: LRRK2 Inhibition Mass Spectrometry Assay. To be noted: 60 nM LRRK2 enzyme; 25 uM LRRKtide; 20 uM ATP; read-out: LRRK2 Inhibition Mass Spectrometry Assay (pIC50) (converted). The test is classed as biochemical. As for the experimental part:
A LRRK2 cDNA encoding residues 1326-2527 was received from Dundee University (described in M. Jaleel et al., 2007, Biochem J, 405: 407-417). This gene fragment was subcloned into pFB-HTb (Invitrogen) using BamHI and NotI restriction sites. The LRRK2 plasmid was recombined into the baculovirus genome according to the BAC-to-BAC protocol described by Invitrogen. Transfection into Spodoptera frugiperda (Sf9) insect cells was performed using Cellfectin (Invitrogen), according to the manufacturer's protocol to generate P1 and P2 baculovirus stocks.
Sf9 cells were grown in HyClone SFX (Thermo Scientific) growth media at 27° C., 80 rpm in shake flask until of a sufficient volume to inoculate a bioreactor. The cells were grown in a 20 liter working volume Wave bioreactor (GE Healthcare) at 27° C., 50% dissolved oxygen and an agitation rate 22 rocks per minute, 10 degree rock angle, 200 ml/min air with a cell concentration of approximately 6×e6 cells/ml. The cells were infected with P2 Baculovirus at a multiplicity of infection (MOI) of 3. The cultivation was continued for a 48 hour expression phase. The infected cells were removed from the growth media by centrifugation at 2500 g using a Sorvall RC 3C Plus centrifuge at 2500 g for 20 minutes. The cell pellet was immediately frozen and subsequently supplied for purification.
A 260 g pellet was allowed to thaw in a water bath at 27° C. with 800 ml lysis buffer/buffer A (50 mm Tris-HCl pH 8.5, 300 mM NaCl, 1 mm DTT, 10% glycerol, 1 ml/L calbiochem complete protease inhibitor cocktail and benzonase (50 ul/800 ml)) before being dounce homogenised on ice using 20 strokes per 100 ml. The suspension was packed in ice and sonicated at 50% amplitude for 3 min 10 sec on/off using a ¾″ probe. The suspension was then centrifuged at 100,000 g for 90 min, at 4° C.
The lysate (700 ml) was decanted from the insoluble pellet and contacted for 3 h at 4 C with 10 ml His bind Ni NTA resin by end over end mixing. The resin was recovered by centrifugation, 3000 g, 5 min at 4 C, and packed in an XK16 column. The column was then washed with 10 column volumes buffer A, 10 column volumes buffer B (buffer A+1M NaCl) and 10 column volumes buffer C (buffer A+20 mM imidazole). The column was then eluted with 15 column volumes buffer D (buffer A+300 mM imidazole) collecting 2 ml fractions. All washes and elution were conducted at 4 ml/min.
Fractions identified by SDS-PAGE as containing protein of interest were pooled and loaded directly onto a 320 ml SEC Superdex 200 pg column that was pre-equilibrated with buffer E (50 mM Tris-HCl pH 8.5, 300 mM NaCl, 10% glycerol, 1 mM DTT). The column was loaded and eluted with 1.2 column volumes buffer E at 2 ml/min collecting 2 ml fractions. Fractions identified by SDS-PAGE as containing protein of interest were tested for activity.
Production of LRRKtide for LRRK2 Inhibition Mass Spectrometry Assay
The ‘LRRKtide’ peptide H-RLGRDKYKTLRQIRQ-OH was synthesized as follows. The protected peptide was assembled on a solid-phase synthesiser using preloaded Wang resin and utilising standard Fmoc synthesis protocols. The crude peptide was obtained after cleavage from the resin with a mixture of trifluoroacetic acid (TFA), triisopropylsilane and water (95:2.5:2.5) for 3 hours at room temperature and was then purified using a C18 reverse-phase column utilising a 0.1% TFA-buffered water/acetonitrile gradient. The resulting fractions were analysed and fractions which were >95% pure by analytical HPLC and giving the correct molecular weight (mw) (by MALDiTOF mass spectroscopy) were pooled and freeze dried. The final material was analysed by HPLC and MALDiTOF mass spectroscopy.
LRRK2 Inhibition Mass Spectrometry Assay
This assay for Leucine Rich Repeat Kinase 2 (LRRK2) inhibition is based on the direct measurement of the peptide ‘LRRKtide’ (LRRKtide: RLGRDKYKT*LRQIRQ (H-RLGRDKYKTLRQIRQ-OH used for this screen)) and phosphorylated ‘LRRKtide’ using a high throughput RapidFire mass spectrometry assay. […]

Consider `CCOc1nc(Nc2cnn([C@H]3CCN(C4COC4)C[C@@H]3F)c2Cl)nc2[nH]ccc12` (single isomer, unassigned) [Example E104], for which the IC50 was 7.94 nM.

Take `CCOc1nc(Nc2cnn([C@@H]3CCN(C4COC4)C[C@H]3F)c2Cl)nc2[nH]ccc12` (single isomer, unassigned) [Example E105]: the IC50 was 7.94 nM.

Take `CCOc1nc(Nc2cnn(C3CCOCC3C)c2C)nc2[nH]ccc12` (single isomer, unassigned) [Example E113, (cis)-4-ethoxy-N-(5-methyl-1-(3-methyltetrahydro-2H-pyran-4-yl)-1H-pyrazol-4-yl)-7H-pyrrolo[2,3-d]pyrimidin-2-amine]: the IC50 was 10 nM.

For the molecule `CCOc1nc(Nc2cnn(C3CN(C)CCC3(F)F)c2C)nc2[nH]ccc12` (single isomer, unassigned) [Example E121, N-(1-(4,4-difluoro-1-methylpiperidin-3-yl)-5-methyl-1H-pyrazol-4-yl)-4-ethoxy-7H-pyrrolo[2,3-d]pyrimidin-2-amine], the IC50 is 10 nM.

In the case of `CCOc1nc(Nc2cnn(C3CN(C4COC4)CCC3(F)F)c2Cl)nc2[nH]ccc12` (single isomer, unassigned) [Example E124, N-(5-chloro-1-(4,4-difluoro-1-(oxetan-3-yl)piperidin-3-yl)-1H-pyrazol-4-yl)-4-ethoxy-7H-pyrrolo[2,3-d]pyrimidin-2-amine], the IC50 is 10 nM.

Consider `CCOc1nc(Nc2cnn(C3CCN(C4COC4)CC3(F)F)c2Cl)nc2[nH]ccc12` (single isomer, unassigned) [Example E134, N-(5-chloro-1-(3,3-difluoro-1-(oxetan-3-yl)piperidin-4-yl)-1H-pyrazol-4-yl)-4-ethoxy-7H-pyrrolo[2,3-d]pyrimidin-2-amine], for which the IC50 is 7.94 nM.

Regarding `CCOc1nc(Nc2cnn(C3CN(C4COC4)CCO3)c2Cl)nc2[nH]ccc12` (single isomer, unassigned) [Example E141, N-(5-chloro-1-(4-(oxetan-3-yl)morpholin-2-yl)-1H-pyrazol-4-yl)-4-ethoxy-7H-pyrrolo[2,3-d]pyrimidin-2-amine], the IC50 is 7.94 nM.

Take `CCOc1nc(Nc2cnn(C3CC(N4CCOCC4)C3)c2C)nc2[nH]ccc12` (stereo not drawn) [Example E86, 4-ethoxy-N-(5-methyl-1-(3-morpholinocyclobutyl)-1H-pyrazol-4-yl)-7H-pyrrolo[2,3-d] pyrimidin-2-amine]: the IC50 was 10 nM.

For `CCOc1nc(Nc2cnn(CCN3CCO[C@H](C(F)F)C3)c2C)nc2[nH]ccc12` [Example E100, (S)—N-(1-(2-(2-(difluoromethyl)morpholino)ethyl)-5-methyl-1H-pyrazol-4-yl)-4-ethoxy-7H-pyrrolo[2,3-d]pyrimidin-2-amine], the IC50 was 7.94 nM.
